Assay results as given in patent US20250134952A1, “METHODS FOR IMPROVING THE EFFICACY OF HDAC INHIBITOR THERAPY AND PREDICTING THE RESPONSE TO TREATMENT WITH HDAC INHIBITOR” (INSTITUT NATIONAL DE LA SANTÉ ET DE LA RECHERCHE MÉDICALE, priority 2021, published 2025).

Experiments:
[1] = tested on: MCF7shctrl and MCF7shTau subclones; assay: Cell death by staining and flow cytometric analysis (Zombie NIR); type: cell-based, human; conditions: 100 nM TSA, 48 hours
Experimental: FIG. 1: Tau inhibition increases MCF7 breast cancer cell line sensitivity to TSA. (A) Tau protein expression in MCF7, MCF7shctrl and shTau were quantify by Elisa. (B) Effect of 100 nM TSA (48 h) on cell death in the MCF7shctrl and MCF7shTau subclones. Cell death was determined by staining and flow cytometric analysis as described in the materials and methods. (C) Effect of 100 nM TSA (48 h) on apoptosis in the MCF7shctrl and MCF7shTau subclones. Apoptosis was determined by flow cytometric analysis of the PI-positive and Annexin-V-positive cells as described in the materials and methods. (D) Cell cycle distribution was determined by FACS analysis of combined propidium iodide and EdU staining in MCF7shctrl and MCF7shTau in the absence or presence 100 nM TSA, 48 h. Data are mean±SD **P<0.01***P<0.001. […]
SH-SY5Y human neuroblastoma cells expressing Tau4R tagged with the streptavidin-binding peptide (SBP) (referred as SH-SY5Y-(SBP)Tau4R) (Chauderlier et al., 2018), SH-SY5Y-Tet-on-Tau4R, Hela cells, MCF7 and MDA-MB-231 were cultured in Dulbecco's Modified Eagle's Medium with 10% fetal bovine serum, 2 mM L-glutamine and 50 U/ml penicillin/streptomycin (Gibco) at 37° C. in 5% CO2 humidified air. […] For stable clones, luciferase activities were measured using the luciferase assay system (Promega) and normalized against protein concentration. […]

[2] = tested on: GAPDH promoter in MCF7shctrl cells; assay: ChIP-qPCR of H3 acetylation and Tau occupancy on the GAPDH promoter; type: cell-based, human; conditions: 100 nM TSA, GAPDH transcription start site
Text: (A) Chromatin immunoprecipitations-qPCR analysis of H3 acetylation and Tau occupancy on the GAPDH promoter in MCF7shctrl cells in the indicated conditions. MCF7shctrl cells were subjected to cross-linking by 1% formaldehyde. Chromatin fragments were then immunoprecipitated using antibodies (Ab) against acetylated H3 (ac-H3) or Tau and analyzed by quantitative PCR for the presence of the GAPDH promoter. (B) Functional organization of the p21 promoter. (C) ChIP-qPCR analysis of H3 acetylation in MCF7shctrl or shTau cells or (D) Tau occupancy in MCF7shctrl cells on the p21 promoter. […] Chromatin fragments were then immunoprecipitated using antibodies (Ab) against acetylated H3 or Tau and analyzed by quantitative PCR for the presence of the GAL4 UAS promoter. Quantification of enrichment is represented as fold-enrichment relative to IgG. […]
To test this hypothesis, we next performed chromatin immunoprecipitations assays. […] Quantitative PCR analysis of input or immunoprecipitated DNA using acetylated H3 and Tau antibodies was carried out to detect different promoter regions. […] No change in the level of acetylated H3, nor Tau binding, were detected after TSA treatment (FIG. 3A). […] In addition, Tau was detected at the level of these regions in MCF7shctrl cells (≈4-fold enrichment) in absence or presence of TSA treatment (FIG. 3D).

## CC(/C=C/C(=O)NO)=C\[C@@H](C)C(=O)c1ccc(N(C)C)cc1 [TSA, 2,4-Heptadienamide, 7-[4-(dimethylamino)phenyl]-N-hydroxy-4,6-dimethyl-7-oxo-, (2E,4E,6R)-]
[1]; Tau-knockdown cells (MCF7shTau)
  number of dead cells: > 50%
[1]; sh-ctrl cells (MCF7shctrl)
  number of dead cells: 38%
[2]
  level of acetylated H3 and Tau binding after TSA treatment: No change
